Test results published in patent US10174033B2, “N6-substituted adenosine derivatives and N6-substituted adenine derivatives and uses thereof” (INSTITUTE OF MATERIA MEDICA, CHINESE ACADEMY OF MEDICAL …, priority 2009, dated 2019).

System: male ICR-mice
Assay: Potentiation of sodium pentobarbital sleeping time test
Format: in vivo
Conditions: intraperitoneal, 1 mg/kg, 38 mg/kg sodium pentobarbital 30 min later
Protocol: Effects of N^6-substituted adenosine derivatives and/or N^6-substituted adenine derivatives on sodium pentobarbital-induced sleeping time in mice.
Name of Experiment: Potentiation of sodium pentobarbital sleeping time test.
Method of Experiment: Groups of 8-10 male ICR-mice with an average weight of 18-22 g were used. They were dosed orally or i.p. with the test compound or the vehicle. Thirty min after i.p. injection or 60 min after oral dosing 38 mg/kg sodium pentobarbital were injected intravenously. The latency and duration of sleep (loss of righting reflex) were recorded. The percentage of prolongation of sleeping time was calculated as: [(sleeping time of experimental group)−(sleeping time of control group)]/(sleeping time of control group)×100%.

Compound	Sleep prolonging rate (%)
OC[C@H]1O[C@@H](n2cnc3c(NCCc4ccc(O)c(O)c4)ncnc32)C(O)C1O (some centres unmarked) [Example 38]	98
Cc1ccc(CNc2ncnc3c2ncn3[C@@H]2O[C@H](CO)[C@@H](O)[C@H]2O)cc1 [Example 4, N^6-(p-methylbenzyl)-adenosine]	51
Nc1ccc(CNc2ncnc3c2ncn3[C@@H]2O[C@H](CO)[C@@H](O)[C@H]2O)cc1 [Example 6, N^6-(p-aminobenzyl)-adenosine]	165
Cc1cccc(CNc2ncnc3c2ncn3[C@@H]2O[C@H](CO)[C@@H](O)[C@H]2O)c1 [Example 5, N^6-(m-methylbenzyl)-adenosine]	84

Same assay, conditions: intraperitoneal, 5 mg/kg, 38 mg/kg sodium pentobarbital 30 min later

Compound	Sleep prolonging rate (%)
O=C(O)[C@H](Cc1ccccc1)Nc1ncnc2c1ncn2[C@@H]1O[C@H](CO)C(O)C1O (some centres unmarked) [Example 102, N-(6-adenosine)-(L)-phenylalanine]	44

Same assay, conditions: oral, 2.5 mg/kg, 38 mg/kg sodium pentobarbital 60 min later

Compound	Sleep prolonging rate (%)
CC[C@H](Nc1ncnc2c1ncn2[C@@H]1O[C@H](CO)[C@@H](O)[C@H]1O)c1ccccc1 [Example 78, N^6-[(S)-1-(phenyl)-propyl]-adenosine]	49
CC(Nc1ncnc2c1ncn2[C@@H]1O[C@H](CO)[C@@H](O)[C@H]1O)c1ccc(N)cc1 (mixture of isomers) [Example 48, N^6-[(±)-1-(4-aminophenyl)-ethyl]-adenosine]	132

Same assay, conditions: oral, 5 mg/kg, 38 mg/kg sodium pentobarbital 60 min later

Compound	Sleep prolonging rate (%)
COc1ccc2c(c1)CCCC2Nc1ncnc2c1ncn2[C@@H]1O[C@H](CO)[C@@H](O)[C@H]1O (mixture of isomers) [Example 96, N^6-[(±)-(6-methoxy-1,2,3,4-tetrahydro-naphthalene-1-yl)]-adenosine]	170
CC[C@@H](Nc1ncnc2c1ncn2[C@@H]1O[C@H](COC(C)=O)C(OC(C)=O)C1OC(C)=O)c1ccccc1 (stereo partly drawn) [Example 76, N^6-[(R)-1-(phenyl)-propyl]-adenosine-2′,3′,5′-triacetate]	339
OC[C@H]1O[C@@H](n2cnc3c(NCCc4ccc(O)c(O)c4)ncnc32)C(O)C1O (some centres unmarked) [Example 38]	69
C[C@@H](Nc1ncnc2c1ncn2[C@@H]1O[C@H](CO)[C@@H](O)[C@H]1O)c1ccc(Cl)cc1 [Example 68, N^6-[(R)-1-(4-chlorophenyl)-ethyl]-adenosine]	103
CC(C(O)c1ccccc1)N(C)c1ncnc2c1ncn2[C@@H]1O[C@H](CO)C(O)C1O (mixture of isomers) [Example 137, N^6-methyl-N^6-[(±)-2-(1-hydroxy-1-phenyl)-propyl]-adenosine]	92
CN(Cc1ccccc1)c1ncnc2c1ncn2[C@@H]1O[C@H](CO)[C@@H](O)[C@H]1O [Example 133, N^6-methyl-N^6-benzyl-adenosine]	27
CCCC(=O)OCC1OC(n2cnc3c(NCc4ccc(OC(=O)CCC)c(OC)c4)ncnc32)C2OC(C)(C)OC12 (centres unmarked) [N^6-(3-methoxy-4-butanoyloxy-benzyl)-2′,3′-O-isopropylidene-adenosine-5′-butyrate]	21
CC[C@H](C)[C@@H](CO)Nc1ncnc2c1ncn2[C@@H]1O[C@H](CO)C(O)C1O (some centres unmarked) [Example 131, N^6-[(L)-2-(1-hydroxy-3-methyl)-pentyl]-adenosine]	36
OC[C@H]1O[C@@H](n2cnc3c(N[C@@H](c4ccccc4)[C@H](O)c4ccccc4)ncnc32)C(O)C1O (stereo partly drawn) [Example 100, N^6-{(1R,2S)-[2-hydroxy-(1,2-diphenyl)]-ethyl}-adenosine]	38
OC[C@H]1O[C@@H](n2cnc3c(N[C@H](c4ccccc4)[C@@H](O)c4ccccc4)ncnc32)C(O)C1O (stereo partly drawn) [Example 99, N^6-{(1S,2R)-[2-hydroxy-(1,2-diphenyl)]-ethyl}-adenosine]	46
CC(O)CN(CC(C)O)c1ncnc2c1ncn2[C@@H]1O[C@H](CO)[C@@H](O)[C@H]1O (some centres unmarked) [Example 140, N^6,N^6-bis(2-hydroxypropyl)-adenosine]	5
CCOC(=O)[C@H](Cc1ccc(O)cc1)Nc1ncnc2c1ncn2[C@@H]1O[C@H](CO)C(O)C1O (some centres unmarked) [Example 109, N-(6-adenosine)-(L)-tyrosine ethyl ester]	36
N^6-[(±)-1-(3,4,5-trimethoxyphenyl)-ethyl]-adenosine-5′-decanoic ether [Example 56]	2
C[C@H]([C@@H](O)c1ccccc1)N(C)c1ncnc2c1ncn2[C@@H]1O[C@H](CO)C(O)C1O (stereo partly drawn) [Example 135, N^6-methyl-N^6-[2-(1S,2R)-(1-hydroxy-1-phenyl)-propyl]-adenosine]	39
CCCC(=O)Oc1ccc(CNc2ncnc3c2ncn3[C@@H]2O[C@H](CO)[C@@H](O)[C@H]2O)cc1OC [N^6-(3-methoxy-4-butanoyloxy-benzyl)-adenosine]	11
CC[C@H](Nc1ncnc2c1ncn2[C@@H]1O[C@H](COC(C)=O)C(O)C1O)c1ccccc1 (stereo partly drawn) [Example 80, N^6-[(S)-1-(phenyl)-propyl]-adenosine-5′-acetate]	24
Nc1ccc(CNc2ncnc3c2ncn3[C@@H]2O[C@H](CO)[C@@H](O)[C@H]2O)cc1 [Example 6, N^6-(p-aminobenzyl)-adenosine]	171
CCOC(=O)[C@@H](Cc1ccc(O)cc1)Nc1ncnc2c1ncn2[C@@H]1O[C@H](CO)C(O)C1O (some centres unmarked) [Example 108, N-(6-adenosine)-(D)-tyrosine ethyl ester]	32
CCCC(Nc1ncnc2c1ncn2[C@@H]1O[C@H](CO)[C@@H](O)[C@H]1O)c1ccc(OC)cc1 (mixture of isomers) [Example 88, N^6-[(±)-1-(4-methoxyphenyl)-butyl]-adenosine]	80
CCCOC[C@H]1O[C@@H](n2cnc3c(N[C@@H](CC)c4ccccc4)ncnc32)C(O)C1O (stereo partly drawn) [Example 83, N^6-[(S)-1-(phenyl)-propyl]-adenosine-5′-propyl ether]	4
COc1ccc(CCC(=O)OC[C@H]2O[C@@H](n3cnc4c(NC(C)c5cc(OC)c(OC)c(OC)c5)ncnc43)C(O)C2O)cc1 (mixture of isomers) [Example 54, N^6-[(±)-1-(3,4,5-trimethoxyphenyl)-ethyl]-adenosine-5′-p-methoxy-phenyl propionate]	76
COc1cccc([C@@H](C)Nc2ncnc3c2ncn3[C@@H]2O[C@H](CO)[C@@H](O)[C@H]2O)c1 [Example 65, N^6-[(R)-1-(3-methoxyphenyl)-ethyl]-adenosine]	160
CSCC[C@@H](CO)Nc1ncnc2c1ncn2[C@@H]1O[C@H](CO)C(O)C1O (some centres unmarked) [Example 132, N^6-[(L)-2-(1-hydroxy-4-methylthioyl)-butyl]-adenosine]	53
CCCOC[C@H]1O[C@@H](n2cnc3c(NC(C)c4cc(OC)c(OC)c(OC)c4)ncnc32)C(O)C1O (mixture of isomers) [Example 55, N^6-[(±)-1-(3,4,5-trimethoxyphenyl)-ethyl]-adenosine-5′-propyl ether]	14
C[C@@H](Nc1ncnc2c1ncn2[C@@H]1O[C@H](CO)[C@@H](O)[C@H]1O)c1ccc(F)cc1 [Example 70, N^6-[(R)-1-(4-fluorophenyl)-ethyl]-adenosine]	136
